The test system of series [1] is patient in need of treatment for long COVID. In words: Treating long COVID (Example 1), clinical screening assessments. The format is in vivo, human. The note with it: patients with long COVID. On the procedure:
A Compound of Formula (I), such as Compound 2a or Compound 1a, or a pharmaceutically acceptable salt thereof, is administered orally to a patient in need of treatment for long COVID.
In some embodiments, a patient in need of treatment for long COVID is assessed with ADCS-ADL23. The ADCS-ADL23 (Galasko, 1997) is a 23-item assessment of functional impairment in terms of activities of daily living administered to the support person/caregiver. It comprises 23 questions about the subject's involvement and level of performance across items representing daily living. The questions range from basic to instrumental activities of daily living. Each item is rated from the highest level of independent performance to complete loss. The total score range is from 0 to 78, with lower scores indicating greater functional impairment.
A patient in need of treatment for long COVID is assessed with ERP P300. ERP P300 is a quantitative, unbiased, non-invasive method of recording task-related brain processing speed, elicited by external stimuli, e.g., an oddball auditory stimulus, and is a well-established functional biomarker, particularly of working memory access (Ally, 2006). ERP P300 is characterized by a stereotyped series of voltage deflections occurring after the respective odd tone to be counted, with early features (<100 msec) corresponding to unconscious sensory transmission (auditory cortex, N100), and later features produced by cognitive processing in the ventral attentional network, i.e., P300, referring to the large positive deflection at roughly 300 msec in healthy adults (young or elderly). The P300 latency is sensitive to detecting reduced synaptic transmission related to cognitive decline in AD patients and other dementias (Olichney, 2011).

The subject of series [2] is Rat primary cortical neuron cultures. Format: cell-based. To be noted: for Significance of neuroprotection vs 1 uM LPS: 24 h LPS.
Series [3] relates to Rat hippocampal neurons. In words: Neurite outgrowth assay. The format is cell-based.
The subject of series [4] is Rat hippocampal neurons. In words: Synaptogenesis assay. Format: cell-based. To be noted: for Significant increase in: Synapses: Table 4 study.
Series [5] has as its system scopolamine-induced spatial memory deficits in rats. In words: Scopolamine-induced spatial memory deficit, Morris water maze (3 mg/kg scopolamine, 8 days). Format: in vivo, rat.

Each structure is given as a SMILES string. Read-outs that look alike come from different tables or passages of the source.

For `CCC(C)CN1CC2N(C(=O)c3ccc(OC(F)F)cc3)CCC(=O)N2[C@@H](C)C1=O` (some centres unmarked) [Compound 2a], the “patient outcome as measured by one or more of the screening assessments” value in series [1] is reported as “reduces the rate of decline, stabilizes, or improves patient outcome”. Moreover, the safety and tolerability entry in series [1] is “acceptable safety and tolerability”. Besides, the “Significance of neuroprotection vs 1 uM LPS” value in series [2] (0.1 nM), in series [2] (1 nM), in series [2] (10 nM), in series [2] (100 nM) and in series [2] (1 μM) was “+++ (+++ indicates p<0.001)” each time. Also, the “protection of primary neurons from LPS-stimulated inflammatory toxicity” value in series [2] (at at least one dose tested) is recorded as “protected primary neurons from LPS-stimulated inflammatory toxicity”. Further, the “neurite length / extension of neurites (in words)” value in the series with Rat hippocampal neurons [3] was “increase neurite length at a concentration of 10 nM”. For the same compound, the “Significant increase in: Neurite length” value in the series with Rat hippocampal neurons [3] (10 nM, Table 4 study) is listed as “++++ (++++ = p < 0.0001)”. Also, the “synapse counts (in words)” value in the series on Rat hippocampal neurons [4] is given as “increase synapse counts at all concentrations tested”. Also, the “Significant increase in: Synapses” value in the series on Rat hippocampal neurons [4] (1 nM), in the series with Rat hippocampal neurons [4] (10 nM) and with Rat hippocampal neurons [4] (100 nM) was “++++ (++++ = p < 0.0001)” each time. In addition, the “Cognitive Improvement” value in series [5] (0.1 mg/kg PO) is on record as “− (− indicates post-test p-value above 0.06)”; in series [5] (1 mg/kg PO), “+++ (+++ indicates post-test p-value below 0.01)”; in series [5] (10 mg/kg PO), “− (− indicates post-test p-value above 0.06)”.

Source of the values: US20250161308A1, “Methods of Treating Covid-Related Disorders” (priority 2022, published 2025).
